Columns and labels:
[1] = NOVARTIS: Cytotoxicity against human hepatocellular carcinoma cell line (Huh7); type: toxicity, cell-based, Huh-7; settings: Huh7 cells (hepatocellular carcinoma cell line)
Plasmodium falciparum [2] = assay: NOVARTIS: Inhibition of Plasmodium falciparum W2 (drug-resistant) proliferation in erythrocyte-based infection assay; type: functional, organism-based; settings: read-out: EC50
Plasmodium falciparum [3] = assay: NOVARTIS: Inhibition of Plasmodium falciparum 3D7 (drug-susceptible) proliferation in erythrocyte-based infection assay; type: functional, organism-based

Compound | CC50 [1] [nM] | EC50 (Plasmodium falciparum [2]; Plasmodium falciparum, W2) [nM] | EC50 (Plasmodium falciparum [3]; Plasmodium falciparum, 3D7) [nM] | EC50 (Plasmodium falciparum [2]) [nM] | EC50 (Plasmodium falciparum [3]) [nM]
COc1ccccc1N1C(=N)S/C(=C/c2ccc(N(C)C)cc2)C1=O | > 10000 | 136 | 119 | – | –
CCOC(=O)c1cnc2c3c(ccc2c1O)CCCC3 | > 100000 | 137 | 133 | – | –
Cc1ccc(C=Cc2ccc(N(C)C)cc2)[n+](C)c1 | > 60500 | – | – | 400 | 397
C=CC[N+]1(CC#Cc2cccc3ccccc23)CCCCC1 | > 100000 | 396 | 683 | – | –
CCOc1cc(C(Nc2cc(C)ccn2)c2ccc3cccnc3c2O)ccc1OCc1ccccc1 (centres undefined) | > 10000 | 1030 | > 1340 | – | –
Cc1cc(NS(=O)(=O)c2ccc(NC(=O)c3ccc([N+](=O)[O-])cc3)cc2)no1 | > 10000 | > 678 | > 1250 | – | –
COc1ccccc1NC(=O)N1CCN(C(=O)c2nc(-c3ccccc3)nc(C)c2C(=O)OC(C)C)CC1C (centres undefined) | > 10000 | < 16.9 | 529 | – | –
COc1cc(NC(C)CCCN(Cc2ccc(OC)c(OC)c2)C(=O)NC2CCCCC2)c2ncccc2c1 (centres undefined) | 1300 | 337 | 676 | – | –
COc1ccccc1N1CCN(C2CCN(C3CCC(c4ccccc4)CC3)CC2)CC1 (centres undefined) | 20200 | 670 | 293 | – | –
NC(=O)c1ccc2c(c1)N=C(c1cccnc1)N(C1CC1)C2 | > 10000 | 648 | 1300 | – | –
O=C(NCc1c(Cl)cccc1Sc1ccc(Cl)cc1)c1ccc2c(c1)CCO2 | > 10000 | 56.2 | 69.1 | – | –
COc1ccc(-n2nc(C(C)(C)C)cc2NC(=O)CN(C(=O)c2ccc(C)c([N+](=O)[O-])c2)C(C)C)cc1 | 31100 | 1820 | 1550 | – | –
CC1=C(C(=O)OC(C)C)C(c2ccccc2F)C2=C(CC(C)(C)CC2=O)N1 (centres undefined) | > 10000 | 1910 | > 1250 | – | –
Cn1ncnc2c(=O)n(C)c(=O)nc1-2 | 199 | 481 | > 12500 | – | –
O=C1C=C(Nc2ccc(O)cc2)c2ccccc2C1=O | 5120 | 785 | 730 | – | –
Cc1nc2sccn2c1-c1csc(Nc2ccccn2)n1 | > 100000 | 889 | 381 | – | –
Clc1ccccc1C(c1ccccc1)(c1ccccc1)n1ccnc1 [CLOTRIMAZOLE] | 25800 | 338 | 280 | – | –
COc1ccc2nc(C)cc(NN=Cc3cccc(OC)c3O)c2c1 | 6120 | 23.5 | 25.1 | – | –
CN(C)c1ccc(/C=C2\SC(=Nc3ccc(F)cc3)NC2=O)cc1 | > 10000 | 493 | 361 | – | –
O=c1c(-c2ccc(Cl)cc2Cl)c(C(F)(F)F)oc2c(CN3CCCCC3)c(O)ccc12 | > 100000 | 198 | 994 | – | –
Cc1nnc(Nc2ccc(F)cc2)c2ccccc12 | > 10000 | > 68.9 | > 1250 | – | –
CC1(C)C2CCC1(C)C(OCC[N+]1(Cc3ccccc3)CCCC1)C2 (centres undefined) | 12700 | 195 | 161 | – | –
O=C(NCCc1ccc(-c2ccccc2)cc1)c1ccc(NS(=O)(=O)C(F)(F)F)cc1 | > 8730 | > 439 | > 1250 | – | –

Compound | CC50 [1] [nM] | EC50 (Plasmodium falciparum [2]; Plasmodium falciparum, W2) [nM] | EC50 (Plasmodium falciparum [3]; Plasmodium falciparum, 3D7) [nM] | EC50 (Plasmodium falciparum [2]) [nM] | EC50 (Plasmodium falciparum [3]) [nM]
Cc1ccccc1N=Nc1ccc(NC(=O)c2ccco2)c(C)c1 | 72200 | 272 | 402 | – | –
Cc1cc(C)nc(/N=C(\N)Nc2ccccc2O)n1 | > 100000 | 36.2 | 379 | – | –
CN(C)c1ccc(/C=C2/SC(=Nc3ccc(O)cc3)NC2=O)cc1 | > 100000 | > 12500 | 2820 | – | –
COc1ccc(CCNC(=O)CC(=O)NN=Cc2ccc(Br)cc2)cc1OC | > 10000 | > 429 | > 1250 | – | –
C=CCn1c2cc(C)sc2c2cnn(CC(=O)N3CC(C)CC(C)C3)c(=O)c21 (centres undefined) | > 10000 | > 857 | > 1250 | – | –
COC(=O)CSc1nnc2c(n1)[nH]c1c(OC)ccc(Cl)c12 | > 10000 | 736 | 642 | – | –
CCc1ccc(C2C(C(=O)Nc3ccccc3)=C(C)Nc3c(C(=O)Nc4ccc(C)cc4)cnn32)cc1 (centres undefined) | > 100000 | 554 | 1500 | – | –
Fc1ccccc1CCNc1ncnc2c1[nH]c1ccccc12 | 14300 | 150 | 165 | – | –
O=C(CSc1oc(-c2ccc(Cl)cc2)nc1[P+](c1ccccc1)(c1ccccc1)c1ccccc1)c1ccccc1 | > 10000 | > 1180 | 851 | – | –
CC(C)(C)c1ccc(C2CC3=Nc4ccccc4N(C(=O)c4ccccc4Cl)C(c4ccc(F)cc4)C3=C(O)C2)cc1 (centres undefined) | > 100000 | 3940 | 2630 | – | –
O=C1C(Sc2nnc[nH]2)=CC(=NS(=O)(=O)c2cccs2)c2ccccc21 | 6910 | 707 | 1530 | – | –
CCOC(=O)c1ccc(N2CCN(c3ccc(F)cc3)CC2)c(NC(=O)Nc2ccccc2)c1 | > 10000 | > 860 | > 1250 | – | –
Clc1ccc(OCc2nc3ccccc3n2CCc2ccccc2)cc1 | > 10000 | 165 | > 720 | – | –
COc1ccc2nc(C)cc(Nc3ccc(Oc4ccc(Cl)c5ccccc45)c(Cl)c3)c2c1 | 19800 | 826 | 365 | – | –
Cc1ccc(Cl)cc1N1CCN(S(=O)(=O)c2ccc3c(c2)oc(=O)n3C)CC1 | > 100000 | 882 | > 12500 | – | –
CC=C[C@H]1O[C@@](O)([C@@H](C)C(O)C(C)[C@H]2OC(=O)C(OC)=CC(C)=C[C@@H](C)[C@H](O)C(CC)[C@@H](O)[C@H](C)CC(C)=CC=C[C@@H]2OC)C[C@@H](O[C@H]2C[C@@H](O)[C@H](OC(N)=O)[C@@H](C)O2)[C@@H]1C (some centres undefined) | > 10000 | > 1250 | 1180 | – | –
N#CC(=CC=Cc1ccc([N+](=O)[O-])o1)c1nc2ccccc2[nH]1 | 8690 | 387 | 381 | – | –
CC(C)(C)NC(=O)C(C1CC1)N1C(=O)c2cc(O)ccc2NC(=O)[C@@H]1CCCCN (some centres undefined) | > 10000 | 139 | > 1250 | – | –
CC1CN(C(=O)C(Cl)(Cl)Cl)C(C)CN1C(=O)C(Cl)(Cl)Cl (centres undefined) | > 100000 | 302 | 2050 | – | –
CCN1C(=O)N(CC(N)=O)C(=O)C12CCN(Cc1ccc(N(C)c3ccccc3)cc1)CC2 | 57800 | 7790 | > 12500 | – | –
Cc1ccccc1[S+]([O-])Cc1ccc(C(=O)N2CCN(c3ccccn3)CC2)o1 (centres undefined) | > 42000 | 1660 | > 7130 | – | –
CCOC(=O)C1=C(C)N=c2sc(=Cc3c4ccccc4cc4ccccc34)c(=O)n2C1c1cc(OC)ccc1OC (centres undefined) | > 100000 | 4770 | > 12500 | – | –
NC(=O)CN1CC(O)CC1=O (centres undefined) [OXIRACETAM] | 57500 | 6220 | 5960 | – | –

Compound | CC50 [1] [nM] | EC50 (Plasmodium falciparum [2]; Plasmodium falciparum, W2) [nM] | EC50 (Plasmodium falciparum [3]; Plasmodium falciparum, 3D7) [nM] | EC50 (Plasmodium falciparum [2]) [nM] | EC50 (Plasmodium falciparum [3]) [nM]
COc1ccc(CN2CCN(C(=O)c3sc4ncn(Cc5ccccc5F)c(=O)c4c3C)CC2)c(OC)c1OC | > 10000 | > 1250 | 1010 | – | –
CN1CCN(N/C=C2/C(=O)N(c3nc4ccccc4s3)N=C2c2ccccc2)CC1 | > 10000 | > 1740 | > 549 | – | –
Cc1cc2c(Nc3cccc(Cl)c3C)ncnc2s1 | > 100000 | 1190 | 1910 | – | –
COCCCNC(=O)c1cc(NC(=O)CCCCl)ccc1N1CCc2ccccc2C1 | 1130 | 30.4 | 331 | – | –
COc1ccc2nc(Nc3nc(-c4ccccn4)cs3)sc2c1 | 7310 | 93.5 | 91.8 | – | –
CCc1cc2c(Sc3nnc(N)s3)ncnc2s1 | > 10000 | 540 | 546 | – | –
CCN(CC)C(=O)c1ccc2c(=O)n(Cc3cccc(Br)c3)c(=S)[nH]c2c1 | > 10000 | 1020 | > 1250 | – | –
O=C(Nc1ccc2c(c1)CN(C1CCSCC1)CC2)C1(c2ccccc2)CC1 | > 100000 | > 5530 | > 12500 | – | –
CC(=O)N(C1=C(N2CCOCC2)C(=O)c2ccccc2C1=O)c1ccc(I)cc1 | 10000 | 108 | 73.7 | – | –
Fc1ccc(-c2c[n+](-c3ccccc3)c3n2CCS3)cc1 | > 100000 | 1070 | 764 | – | –
CC(c1nc2ccccc2c(=O)n1C)N1CCN(C(=O)C(C)(C)C)CC1 (centres undefined) | > 10000 | 191 | 185 | – | –
O=C1CSc2nc3ccccc3n21 | > 100000 | 1060 | 7920 | – | –
O=C(Nc1cc(Cl)cc(Cl)c1)Nc1cccc(C(F)(F)F)c1 | 14900 | > 12500 | 13.8 | – | –
NC1=NC(c2ccccc2)N(c2ccccc2)C(N)=N1 (centres undefined) | > 100000 | 204 | 82.3 | – | –
CCN(CC)c1cc2oc3cc(=[N+](CC)CC)ccc-3nc2c2ccccc12 | 39800 | 826 | 865 | – | –
COc1ccc(Nc2nc(NCc3ccco3)c3ccccc3n2)cc1 | 2970 | 421 | 253 | – | –
CCC(C)NC(=O)c1cc(NC(=O)c2cccc(Cl)c2)ccc1N1CCCCC1 (centres undefined) | 15400 | 194 | > 1610 | – | –
CCC(=O)N1c2ccccc2NC2=C(C(=O)CC(C)(C)C2)C1c1ccc2c(c1)OCO2 (centres undefined) | > 100000 | 6720 | 3530 | – | –
CCCN(CCC)C1=CC(=O)C(C(C)(C)C)=CC1=O | 50900 | 171 | 216 | – | –
c1ccc2cc3c(Nc4ccc(N5CCOCC5)cc4)ccnc3cc2c1 | 69500 | 83.9 | 672 | – | –
CCN1CCN(c2cc(C)c3cc(NC(=O)C=Cc4ccc(OC)cc4)ccc3n2)CC1 | > 100000 | 2750 | 2020 | – | –
CCOC(=O)N1CCC(NC(=O)c2c(C)nn(-c3cccc(C)c3)c2-n2cccc2)CC1 | > 100000 | 1060 | 280 | – | –

From ChEMBL document CHEMBL1156829 (Proc Natl Acad Sci U S A, 2008)
